The source of these data is PMC10648349, “Aromatic Diboronic Acids as Effective KPC/AmpC Inhibitors” (Molecules, 2023).

Structures are written as SMILES. ≈ marks a conversion by molar mass, not a printed value.

For data set [1], the system named is K. pneumoniae 81 KPC-3-positive. As to the kind of experiment: checkerboard microdilution, antibiotic plus tested agent. It is filed as cell-based, Klebsiella pneumoniae. The conditions noted are these: Klebsiella pneumoniae; read-out: MIC of meropenem alone. How it is done:
(§1) To examine the ability of tested agents to inhibit various carbapenemases and AmpC-enzymes, their synergy with antibiotics against β-lactamase-producing strains was assessed by checkerboard microdilution assay, with slight modification. Checkerboards were prepared in microtiter plates, with seven two-fold dilutions of β-lactams (1–64 mg/L) in the rows and three two-fold dilutions of tested agents and PBA (4–16 mg/L) in the columns. Tested agents’ concentrations were limited to the concentrations at which the newest commercially available BLIs (vaborbactam, relebactam, and avibactam) are used in susceptibility testing. Plates were inoculated and incubated as in the MIC microdilution assay. Parallel, MICs of tested agents and PBA alone were determined by the microdilution assay. Following the incubation, antibiotic MICs in the presence of each agent’s concentration were determined. Moreover, for the first well without growth found in each checkerboard row and column along the growth/non-growth interface, the fractional inhibitory concentration index (FICI) was calculated using the formula below:FICI = [(MIC of antibiotic in combination)/(MIC of antibiotic alone)] + [(MIC of the tested agent in combination)/(MIC of tested agent alone)].
(§2) For calculations, all off-scale MICs were converted to the next-highest doubling concentration. Subsequently, both the average and the lowest FICI were interpreted. The interpretation was as follows: FICI ≤ 0.5, synergy; 0.5 < FICI ≤ 4, indifference and FICI > 4, antagonism. Primarily, examined combinations consisted of meropenem (Pol-Aura, Morag, Poland) plus tested agents against carbapenemases-producing strains and ceftazidime (Pol-Aura, Morag, Poland) plus tested agents against AmpC-producing strains. For agents that reduced meropenem MIC at least 4-fold for at least two tested strains, similar assays were performed with imipenem (Pol-Aura, Morag, Poland) and ertapenem (Pol-Aura, Morag, Poland).
A general note: Dilution methods test growth across graded concentrations, often in twofold steps.

The test system of data set [2] is K. pneumoniae ATCC BAA-1705 KPC-2-positive. The data set is described as above. It is filed as cell-based, Klebsiella pneumoniae. The conditions noted are these: Klebsiella pneumoniae, ATCCBAA1705; read-out: MIC of meropenem alone. The protocol: as §1, §2
Data set [3] has as its system K. pneumoniae 83 KPC-3-positive, CTX-M-3-positive. Described as above. The conditions noted are these: Klebsiella pneumoniae; read-out: MIC of meropenem alone. It counts as cell-based, Klebsiella pneumoniae. The protocol:
as §1, §2

Data set [4] concerns P. aeruginosa 1204 VIM(+). The description is as above. It counts as cell-based. The conditions noted are these: Pseudomonas aeruginosa; read-out: MIC of meropenem alone. How it is done: as §1
For calculations, all off-scale MICs were converted to the next-highest doubling concentration. […]

For data set [5], the system named is E. coli 76 KPC-2-positive. The description is as above. It counts as cell-based, Escherichia coli. The conditions noted are these: Escherichia coli; read-out: MIC of meropenem alone. The procedure, abridged:
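Read-out is the antibiotic MIC with agent present, plus FICI = combined/alone MIC ratios summed for both partners. Meropenem pairs served for carbapenemase strains and ceftazidime pairs for the AmpC strain. Agent or PBA was tested at 4–16 mg/L.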

Data set [6] concerns K. pneumoniae ATCC BAA 1705 KPC-2-positive. As to the kind of experiment: combination disc test CDT-KPC. It counts as cell-based. The conditions noted are these: Klebsiella pneumoniae, BAA1705; meropenem 10 µg per disc, 6 mm disc; read-out: Diameter of inhibition zone, MEM-10 disc without agent.
Data set [7] concerns E. coli 82 TR(pl 81), transformant carrying blaKPC-3. The data set is described as follows: whole cell assay, meropenem MIC with tested agent. It is filed as cell-based, Escherichia coli. The conditions noted are these: Escherichia coli, read-out: MIC of meropenem alone. The protocol: as §1
Another data set deals with E. coli DH5α. As to the kind of experiment: whole cell assay, meropenem MIC with tested agent. It is filed as cell-based, Escherichia coli. The conditions noted are these: Escherichia coli; read-out: MIC of meropenem alone. How it is done:
as §1

Another data set relates to CRE strains. Particulars: cited from earlier work.
The subject of data set [8] is C. guilliermondii IBA 155. The data set is described as follows: antifungal activity (disc-diffusion, MIC, MFC). It is filed as cell-based, Candida guilliermondii. The conditions noted are these: Meyerozyma guilliermondii, IBA155. The procedure, abridged:
(§3)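 Disc-diffusion, MIC, MBC (bacteria) and MFC (yeasts) were determined per EUCAST and CLSI recommendations. Diboronic acids were dissolved in DMSO and applied at 0.4 mg per disc for diffusion. References: nitrofurantoin (Gram-negative rods), linezolid (Gram-positive), fluconazole (fungi).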
Background: Agar diffusion results depend on both activity and mobility in agar.

The subject of another data set is C. krusei ATCC 6258. As to the kind of experiment: antifungal activity (disc-diffusion, MIC, MFC). It counts as cell-based, Candida krusei. The conditions noted are these: Pichia kudriavzevii, ATCC6258. The procedure, abridged: as §3
Data set [9] concerns S. aureus ATCC 43300 MRSA. The data set is described as follows: direct antimicrobial activity (disc-diffusion, MIC, MBC). It counts as cell-based. The conditions noted are these: Staphylococcus aureus. The procedure, abridged:
as §3

In the next data set the test system is E. faecalis ATCC 29212. The description is as above. The conditions noted are these: Enterococcus faecalis, ATCC29212. It is filed as cell-based. The essentials: as §3
Another data set has as its system S. aureus ATCC 6538P. The data set is described as above. It counts as cell-based. Particulars: Staphylococcus aureus, ATCC6538P. The procedure, abridged: as §3
For data set [10], the system named is S. epidermidis ATCC 12228. The description is as above. It counts as cell-based. Particulars: Staphylococcus epidermidis, ATCC12228. The essentials: as §3
For another data set, the system named is E. faecium ATCC 6057. The description is as above. It counts as cell-based. The conditions noted are these: Enterococcus faecium, ATCC6057. The procedure, abridged:
as §3

In another data set the test system is C. albicans ATCC 90028. The data set is described as follows: antifungal activity (disc-diffusion, MIC, MFC). It is filed as cell-based. Particulars: Candida albicans, ATCC90028. The procedure, abridged: as §3
Another data set deals with C. tropicalis ATCC 750. The data set is described as follows: antifungal activity (disc-diffusion, MIC, MFC). It counts as cell-based. The conditions noted are these: Candida tropicalis, ATCC750. The procedure, abridged: as §3
A further data set deals with S. cerevisiae ATCC 9763. The data set is described as follows: antifungal activity (disc-diffusion, MIC, MFC). The conditions noted are these: Saccharomyces cerevisiae, ATCC9763. It is filed as cell-based. The procedure, abridged: as §3
Another data set concerns C. tropicalis IBA 171. As to the kind of experiment: antifungal activity (disc-diffusion, MIC, MFC). The conditions noted are these: Candida tropicalis, IBA171. It is filed as cell-based. The procedure, abridged: as §3
Data set [11] in a line: MTT-based viability assay. It is filed as cell-based. The conditions noted are these: human, MRC-5 human fibroblasts, 72 h, read-out: Viability of MRC-5 cells (% of viable cells ± SD). The procedure, abridged:
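Percent viable cells relative to control, measured in triplicate by MTT read-out at 570 nm. Cells: MRC-5 human fibroblasts cultured at 37 °C, 5% CO2 in MEME plus 10% FBS.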
For orientation: Tetrazolium dyes change colour on reduction, which living cells bring about.

In data set [12] the test system is Gram-negative rods (except P. aeruginosa). The data set is described as follows: direct antimicrobial activity, MIC. It counts as cell-based. How it is done:
(§4) Direct antimicrobial activity against Gram-negative and Gram-positive bacterial strains, as well as against yeast, was examined as previously described by the disc-diffusion test, the MIC determination assay, the MBC (for bacteria), and the MFC (for yeasts) determination tests. All the above-mentioned tests were performed according to EUCAST [71, 72] and CLSI [73, 74, 75, 76, 77] recommendations. The following reference agents were used: nitrofurantoin (for Gram-negative rods), linezolid (for Gram-positive bacteria), and fluconazole (in the case of fungi). The new aromatic diboronic acids were dissolved in DMSO (Sigma, St. Louis, MO, USA). In the disc-diffusion test, the concentration of new agents was 0.4 mg per disc.

Data set [13] deals with K. pneumoniae ATCC 700603 ESBL(+). The data set is described as follows: screening test of direct antimicrobial activity (STDA), disc-diffusion. Particulars: Klebsiella pneumoniae, ATCC700603; 0.3 mg per disc; - no zone; read-out: Diameter of inhibition zone around disc with tested agent. It counts as cell-based. How it is done:
(§5) Prior to combination disc tests, screening tests of direct antimicrobial activity (STDA) of the tested agent against β-lactamase-producing strains were performed by the disc-diffusion method. Discs with 0.3 mg, 0.1 mg, and 0.03 mg of each agent were examined. The highest amount of an agent that caused no effect on bacterial growth was used in further experiments.

In data set [14] the test system is P. aeruginosa MUW 700 AmpC(+). Described as above. It counts as cell-based. Particulars: Pseudomonas aeruginosa; 0.3 mg per disc; - no zone; read-out: Diameter of inhibition zone around disc with tested agent. How it is done: as §5
A further data set has as its system B. subtilis ATCC 6633. The data set is described as follows: direct antimicrobial activity (disc-diffusion). It counts as cell-based. Particulars: Bacillus subtilis, ATCC6633; 0.4 mg per disc, 9 mm disc (linezolid 0.03 mg, 6 mm disc); - no zone; read-out: Diameter of inhibition zone. The protocol:
as §4

Data set [15] deals with C. parapsilosis ATCC 22019. As to the kind of experiment: antifungal activity (disc-diffusion, MIC, MFC). It counts as cell-based, Candida parapsilosis. Particulars: Lodderomyces parapsilosis, ATCC22019. The procedure, abridged:
as §3

The test system of a further data set is Gram-positive strains. The data set is described as follows: direct antimicrobial activity, MIC. It is filed as cell-based. How it is done: as §4, with “disc. Depending on the solubility, the MIC and MBC/MFC values were determined up to 100 mg/L for 1k, up to 200 mg/L for 7c, and up to 400 mg/L for the remaining compounds: 1a–1j, 2a–2g, 3a–3f, 4a–4b, 5a–5c, 6a and 7a–7b.” for “disc.”

The mark [16] stands for this setting: 0.4 mg per disc, 9 mm disc (fluconazole 0.025 mg, 6 mm disc), - no zone, read-out: Diameter of inhibition zone.
[17] abbreviates: 0.4 mg per disc, 9 mm disc (linezolid 0.03 mg, 6 mm disc), - no zone, read-out: Diameter of inhibition zone.

With `C[C@@H](O)[C@H]1C(=O)N2C(C(=O)O)=C(S[C@@H]3CN[C@H](C(=O)N(C)C)C3)[C@H](C)[C@H]12` [MEM, meropenem, reference compound], the MIC – broadly, the lowest concentration that inhibits growth of the organism – in data set [1] was determined as 16 µg/mL; in data set [2] it was 32 µg/mL; in [3], 32 µg/mL; in data set [4], 64 µg/mL; in [5], 64 µg/mL; in [7] it was 2 µg/mL. Besides, in the data set with E. coli DH5α, the MIC stood at 0.016 µg/mL. Besides, the zone of inhibition (as a rule, the extent of the growth-free halo in a diffusion test) at 10 µg/disc in data set [6] is 6 mm.
For `O=C(O)c1c(F)ccc2c1OB(O)[C@@H]1C[C@H]21` [xeruborbactam], the MIC in the data set with CRE strains was 16 mg/L (≈ 72.1 µM).
`OB(O)c1cc(I)c(B(O)O)cc1I` [1j]: the zone of inhibition at 0.4 mg/disc in [8] (setting [16]) is 30 mm; with C. krusei ATCC 6258 (setting [16]), 23 mm; in [9] (setting [17]), 21 mm; in the data set on S. aureus ATCC 6538P (setting [17]), 19 mm; in data set [10] (setting [17]), 25 mm; in the data set with C. albicans ATCC 90028 (setting [16]), 24 mm. Also, the zone of inhibition at 0.4 mg/disc in the data set on C. tropicalis ATCC 750 (setting [16]) was determined as 17 mm; in the data set with S. cerevisiae ATCC 9763 (setting [16]), 20 mm; in the data set with C. tropicalis IBA 171 (setting [16]) it was 15 mm; with B. subtilis ATCC 6633 it was 20 mm; in data set [15] (setting [16]), 15 mm. Also, the MIC in [8] (fluconazole by Etest) came to 400 µg/mL (≈ 958 µM); against C. krusei ATCC 6258 (fluconazole by Etest) it was 400 µg/mL (≈ 958 µM); in [9], 50 µg/mL (≈ 120 µM); with E. faecalis ATCC 29212, 400 µg/mL (≈ 958 µM); in the data set on S. aureus ATCC 6538P it was 50 µg/mL (≈ 120 µM); in data set [10], 50 µg/mL (≈ 120 µM). For the same compound, the MIC against E. faecium ATCC 6057 is 400 µg/mL (≈ 958 µM); in the data set on C. albicans ATCC 90028 (fluconazole by Etest) it was 200 µg/mL (≈ 479 µM); in the data set with C. tropicalis ATCC 750 (fluconazole by Etest), greater than 400 µg/mL; in the data set with S. cerevisiae ATCC 9763 (fluconazole by Etest), greater than 400 µg/mL; against C. tropicalis IBA 171 (fluconazole by Etest) it was greater than 400 µg/mL; in [12], 50 to 400 µg/mL (≈ 120 to 958 µM). Moreover, the MIC in [15] (fluconazole by Etest) is greater than 400 µg/mL; in the data set with Gram-positive strains (enterococci) it was 100 to 400 µg/mL (≈ 239 to 958 µM); with Gram-positive strains (staphylococci), 12.5 to 50 µg/mL (≈ 29.9 to 120 µM). For the same compound, the viability (as a rule, a read-out of living cells in per cent, often relative to untreated cells) at 72 h, 12.5 mg/L in [11] (12.5 mg/L) is 125 ± 2.8%. For the same compound, the viability at 72 h, 25 mg/L in [11] (25 mg/L) came out at 117 ± 1.2%. Further, in data set [11] (50 mg/L), the viability at 72 h, 50 mg/L came out at 88.6 ± 3.5%. Moreover, the zone of inhibition at 300 µg/disc came out at 11 mm in data set [13] and 14 mm in [14].
